Data from ChEMBL document CHEMBL5696441 (Nat Chem Biol, 2011).

Columns and labels:
[1] = molecular target: Casein kinase I isoform alpha-like (Homo sapiens) (UniProt Q8N752); test: Inhibition of CSNK1A1L (unknown origin) assessed as remaining activity at 1 uM by Kinome scan method relative to control
[2] = system: Epidermal growth factor receptor (Homo sapiens), P00533 [UNDEFINED MUTATION]; test: Inhibition of EGFR E746-A750del mutant (unknown origin) assessed as remaining activity at 1 uM by Kinome scan method relative to control
[3] = molecular target: Ephrin type-A receptor 6 (Homo sapiens) (UniProt Q9UF33); test: Inhibition of EPHA6 (unknown origin) assessed as remaining activity at 1 uM by Kinome scan method relative to control
[4] = molecular target: Vascular endothelial growth factor receptor 3 (Homo sapiens) (UniProt P35916); test: Inhibition of FLT4 (unknown origin) assessed as remaining activity at 1 uM by Kinome scan method relative to control
[5] = system: Mast/stem cell growth factor receptor Kit (Homo sapiens), P10721 [V559D,V654A]; test: Inhibition of KIT V559D/V654A mutant (unknown origin) assessed as remaining activity at 1 uM by Kinome scan method relative to control
[6] = molecular target: Ribosomal protein S6 kinase alpha-1 (Homo sapiens) (UniProt Q15418); test: Inhibition of C-terminal kinase domain RPS6KA1 (unknown origin) assessed as remaining activity at 1 uM by Kinome scan method relative to control
Ribosomal protein S6 kinase alpha-1 (Homo sapiens), sequence (Q15418 whole entry, the tested form may be a part): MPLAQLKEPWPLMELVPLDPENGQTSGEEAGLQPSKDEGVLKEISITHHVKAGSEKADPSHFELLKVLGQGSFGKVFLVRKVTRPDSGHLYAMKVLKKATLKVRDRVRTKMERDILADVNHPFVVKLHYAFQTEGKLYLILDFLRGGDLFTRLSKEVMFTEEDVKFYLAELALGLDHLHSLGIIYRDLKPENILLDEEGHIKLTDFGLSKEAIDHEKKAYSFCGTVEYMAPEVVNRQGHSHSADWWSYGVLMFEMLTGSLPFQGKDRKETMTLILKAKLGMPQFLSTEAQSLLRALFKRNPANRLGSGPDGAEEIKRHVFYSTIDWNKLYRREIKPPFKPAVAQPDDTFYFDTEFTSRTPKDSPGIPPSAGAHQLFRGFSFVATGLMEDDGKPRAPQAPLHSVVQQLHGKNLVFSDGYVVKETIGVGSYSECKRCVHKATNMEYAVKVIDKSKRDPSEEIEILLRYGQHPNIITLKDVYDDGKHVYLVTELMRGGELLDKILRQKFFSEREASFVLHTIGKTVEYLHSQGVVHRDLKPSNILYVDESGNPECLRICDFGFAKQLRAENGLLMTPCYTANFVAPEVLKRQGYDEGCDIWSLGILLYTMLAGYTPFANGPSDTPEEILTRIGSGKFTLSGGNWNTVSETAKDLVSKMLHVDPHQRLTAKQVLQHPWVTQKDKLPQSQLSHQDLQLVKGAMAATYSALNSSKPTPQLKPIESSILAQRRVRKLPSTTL

[7] = molecular target: Serine/threonine-protein kinase ULK1 (Homo sapiens) (UniProt O75385); test: Inhibition of ULK1 (unknown origin) assessed as remaining activity at 1 uM by Kinome scan method relative to control
[8] = molecular target: DNA-dependent protein kinase catalytic subunit (Homo sapiens) (UniProt P78527); test: Inhibition of human DNPK1 assessed as residual activity at 1 uM using RBER-GSK3 as substrate in presence of 33P-ATP by ProQinase assay relative to control
DNA-dependent protein kinase catalytic subunit (Homo sapiens), sequence (P78527 whole entry): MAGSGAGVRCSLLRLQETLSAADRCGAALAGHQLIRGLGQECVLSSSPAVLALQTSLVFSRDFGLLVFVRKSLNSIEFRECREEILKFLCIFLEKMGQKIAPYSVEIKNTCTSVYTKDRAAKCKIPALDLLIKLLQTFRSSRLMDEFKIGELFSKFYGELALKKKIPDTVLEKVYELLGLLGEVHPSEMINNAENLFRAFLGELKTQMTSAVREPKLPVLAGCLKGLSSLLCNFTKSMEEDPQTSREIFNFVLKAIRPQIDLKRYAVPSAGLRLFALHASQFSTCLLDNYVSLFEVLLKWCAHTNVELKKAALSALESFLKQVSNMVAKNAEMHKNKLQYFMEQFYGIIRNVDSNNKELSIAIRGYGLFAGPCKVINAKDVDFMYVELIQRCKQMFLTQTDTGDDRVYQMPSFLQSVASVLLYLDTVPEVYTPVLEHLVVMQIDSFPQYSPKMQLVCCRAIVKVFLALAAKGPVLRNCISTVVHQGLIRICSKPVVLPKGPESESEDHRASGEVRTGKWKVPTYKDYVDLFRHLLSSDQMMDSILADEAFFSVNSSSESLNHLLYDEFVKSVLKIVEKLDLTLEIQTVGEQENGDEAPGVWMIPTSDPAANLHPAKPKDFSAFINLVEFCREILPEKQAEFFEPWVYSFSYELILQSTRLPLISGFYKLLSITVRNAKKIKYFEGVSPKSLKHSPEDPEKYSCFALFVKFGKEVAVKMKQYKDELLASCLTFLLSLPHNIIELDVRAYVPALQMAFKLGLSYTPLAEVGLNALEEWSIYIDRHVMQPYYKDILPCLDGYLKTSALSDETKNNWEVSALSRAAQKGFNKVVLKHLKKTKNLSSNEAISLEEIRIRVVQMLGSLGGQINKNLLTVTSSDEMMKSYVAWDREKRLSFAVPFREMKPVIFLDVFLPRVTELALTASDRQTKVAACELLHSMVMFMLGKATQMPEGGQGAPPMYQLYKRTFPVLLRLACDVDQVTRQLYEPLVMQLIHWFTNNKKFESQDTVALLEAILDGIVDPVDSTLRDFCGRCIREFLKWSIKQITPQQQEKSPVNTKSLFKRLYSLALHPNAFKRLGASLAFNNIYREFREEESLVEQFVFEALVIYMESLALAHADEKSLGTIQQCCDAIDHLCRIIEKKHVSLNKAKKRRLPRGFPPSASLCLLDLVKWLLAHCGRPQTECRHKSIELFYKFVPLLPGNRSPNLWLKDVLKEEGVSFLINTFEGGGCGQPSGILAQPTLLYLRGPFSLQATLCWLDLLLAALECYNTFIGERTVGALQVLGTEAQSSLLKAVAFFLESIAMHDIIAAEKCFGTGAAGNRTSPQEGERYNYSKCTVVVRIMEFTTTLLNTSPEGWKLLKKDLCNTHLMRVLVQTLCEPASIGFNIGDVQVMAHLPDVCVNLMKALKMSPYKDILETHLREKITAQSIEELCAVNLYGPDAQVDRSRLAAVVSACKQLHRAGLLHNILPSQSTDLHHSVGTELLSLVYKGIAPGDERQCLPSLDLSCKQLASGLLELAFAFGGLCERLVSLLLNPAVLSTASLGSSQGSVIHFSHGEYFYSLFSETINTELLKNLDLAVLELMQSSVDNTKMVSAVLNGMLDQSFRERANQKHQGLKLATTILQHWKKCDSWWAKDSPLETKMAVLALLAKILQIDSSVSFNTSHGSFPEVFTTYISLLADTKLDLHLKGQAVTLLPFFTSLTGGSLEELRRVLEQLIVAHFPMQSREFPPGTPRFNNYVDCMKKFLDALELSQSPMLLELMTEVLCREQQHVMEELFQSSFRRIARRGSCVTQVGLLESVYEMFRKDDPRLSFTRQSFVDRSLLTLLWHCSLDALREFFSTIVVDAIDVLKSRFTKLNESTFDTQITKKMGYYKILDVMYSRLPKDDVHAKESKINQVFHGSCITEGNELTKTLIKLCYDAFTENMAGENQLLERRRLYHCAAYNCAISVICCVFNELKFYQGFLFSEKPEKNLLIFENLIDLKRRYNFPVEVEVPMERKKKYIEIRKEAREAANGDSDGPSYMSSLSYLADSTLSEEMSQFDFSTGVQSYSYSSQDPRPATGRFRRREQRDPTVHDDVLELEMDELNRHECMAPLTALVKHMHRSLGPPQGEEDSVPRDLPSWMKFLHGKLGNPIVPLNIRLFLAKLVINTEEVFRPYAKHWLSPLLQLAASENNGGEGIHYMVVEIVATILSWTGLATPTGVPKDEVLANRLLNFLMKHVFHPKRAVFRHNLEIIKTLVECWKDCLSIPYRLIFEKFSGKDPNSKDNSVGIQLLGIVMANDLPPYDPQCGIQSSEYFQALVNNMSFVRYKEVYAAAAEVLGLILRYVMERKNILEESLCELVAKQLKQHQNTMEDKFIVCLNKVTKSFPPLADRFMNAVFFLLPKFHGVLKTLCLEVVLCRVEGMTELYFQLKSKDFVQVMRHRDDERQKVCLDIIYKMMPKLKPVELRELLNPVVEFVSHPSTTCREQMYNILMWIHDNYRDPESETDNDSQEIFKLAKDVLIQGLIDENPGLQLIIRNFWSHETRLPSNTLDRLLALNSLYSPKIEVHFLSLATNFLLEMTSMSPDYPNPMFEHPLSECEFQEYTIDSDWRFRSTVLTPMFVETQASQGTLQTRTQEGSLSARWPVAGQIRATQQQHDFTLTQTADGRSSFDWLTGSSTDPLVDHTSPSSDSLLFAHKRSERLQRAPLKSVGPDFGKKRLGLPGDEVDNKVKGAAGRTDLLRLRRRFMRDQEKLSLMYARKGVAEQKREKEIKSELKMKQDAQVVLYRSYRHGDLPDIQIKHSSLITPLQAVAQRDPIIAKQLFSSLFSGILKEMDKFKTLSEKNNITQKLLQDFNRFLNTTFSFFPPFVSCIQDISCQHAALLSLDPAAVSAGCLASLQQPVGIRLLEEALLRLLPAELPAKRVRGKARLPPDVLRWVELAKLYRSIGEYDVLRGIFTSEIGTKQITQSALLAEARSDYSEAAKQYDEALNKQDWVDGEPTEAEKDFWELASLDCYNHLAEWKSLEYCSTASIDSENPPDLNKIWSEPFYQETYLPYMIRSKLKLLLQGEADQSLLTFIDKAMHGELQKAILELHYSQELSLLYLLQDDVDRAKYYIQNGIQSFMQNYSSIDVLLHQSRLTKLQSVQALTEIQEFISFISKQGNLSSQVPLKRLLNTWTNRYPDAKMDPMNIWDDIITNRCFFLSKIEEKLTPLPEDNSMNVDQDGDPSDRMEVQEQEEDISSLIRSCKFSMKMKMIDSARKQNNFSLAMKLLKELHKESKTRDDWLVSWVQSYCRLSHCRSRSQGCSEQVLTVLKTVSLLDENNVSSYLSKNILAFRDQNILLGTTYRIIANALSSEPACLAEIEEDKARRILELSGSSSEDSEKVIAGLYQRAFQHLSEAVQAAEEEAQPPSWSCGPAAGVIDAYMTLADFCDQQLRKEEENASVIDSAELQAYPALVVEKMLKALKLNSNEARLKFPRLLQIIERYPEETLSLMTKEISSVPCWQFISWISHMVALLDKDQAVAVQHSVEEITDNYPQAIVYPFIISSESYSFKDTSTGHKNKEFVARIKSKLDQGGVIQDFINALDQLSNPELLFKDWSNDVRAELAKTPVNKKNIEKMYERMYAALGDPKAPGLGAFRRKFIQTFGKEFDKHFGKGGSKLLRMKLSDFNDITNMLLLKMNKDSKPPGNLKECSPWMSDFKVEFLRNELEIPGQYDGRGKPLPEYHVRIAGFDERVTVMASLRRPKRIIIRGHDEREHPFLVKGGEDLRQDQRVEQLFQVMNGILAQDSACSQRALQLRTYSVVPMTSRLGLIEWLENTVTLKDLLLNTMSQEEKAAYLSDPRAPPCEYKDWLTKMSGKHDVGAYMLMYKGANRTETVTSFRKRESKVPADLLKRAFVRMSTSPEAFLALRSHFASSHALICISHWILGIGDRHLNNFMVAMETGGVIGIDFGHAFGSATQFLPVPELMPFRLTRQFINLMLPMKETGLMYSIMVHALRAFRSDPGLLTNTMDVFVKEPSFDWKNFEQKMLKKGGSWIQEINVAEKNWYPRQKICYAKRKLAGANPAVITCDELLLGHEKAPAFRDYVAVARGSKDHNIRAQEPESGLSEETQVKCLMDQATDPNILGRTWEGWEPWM

[9] = system: Hepatocyte growth factor receptor (Homo sapiens), P08581 [Y1230C]; test: Inhibition of human MET Y1230C mutant assessed as residual activity at 1 uM using poly(Ala,Glu,Lys,Tyr)6:2:5:1 as substrate in presence of 33P-ATP by ProQinase assay relative to control
[10] = molecular target: T1, Serine/threonine-protein kinase D1 (Homo sapiens) (UniProt Q15139); test: Inhibition of human PKCmu assessed as residual activity at 1 uM using RBER-CHKtide as substrate in presence of 33P-ATP by ProQinase assay relative to control
T1 sequence (whole entry): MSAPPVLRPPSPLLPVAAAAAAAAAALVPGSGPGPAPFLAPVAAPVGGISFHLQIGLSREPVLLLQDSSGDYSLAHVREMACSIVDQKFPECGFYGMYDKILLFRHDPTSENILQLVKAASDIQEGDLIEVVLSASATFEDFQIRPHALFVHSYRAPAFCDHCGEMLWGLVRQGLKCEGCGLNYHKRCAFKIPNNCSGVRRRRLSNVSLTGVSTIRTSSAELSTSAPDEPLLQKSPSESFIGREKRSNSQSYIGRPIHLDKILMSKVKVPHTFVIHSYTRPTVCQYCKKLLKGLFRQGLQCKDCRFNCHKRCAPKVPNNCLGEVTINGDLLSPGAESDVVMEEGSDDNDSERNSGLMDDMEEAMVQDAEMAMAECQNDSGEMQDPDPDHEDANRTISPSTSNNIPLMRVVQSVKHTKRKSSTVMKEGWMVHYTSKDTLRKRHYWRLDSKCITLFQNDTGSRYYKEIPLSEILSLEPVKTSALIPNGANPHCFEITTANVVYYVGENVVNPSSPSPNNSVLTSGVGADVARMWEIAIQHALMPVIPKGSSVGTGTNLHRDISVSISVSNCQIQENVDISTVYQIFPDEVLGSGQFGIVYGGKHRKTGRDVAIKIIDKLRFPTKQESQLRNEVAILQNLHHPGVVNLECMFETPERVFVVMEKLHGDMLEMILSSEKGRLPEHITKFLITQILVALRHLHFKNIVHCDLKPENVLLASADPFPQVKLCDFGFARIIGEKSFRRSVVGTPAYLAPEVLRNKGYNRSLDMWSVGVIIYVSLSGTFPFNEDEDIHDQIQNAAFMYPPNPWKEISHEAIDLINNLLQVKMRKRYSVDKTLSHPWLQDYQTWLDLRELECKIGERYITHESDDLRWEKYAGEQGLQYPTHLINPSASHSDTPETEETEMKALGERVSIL

[11] = molecular target: T2, Serine/threonine-protein kinase D3 (Homo sapiens) (UniProt O94806); test: Inhibition of human PKCnu assessed as residual activity at 1 uM using bio-4xCHKT as substrate in presence of 33P-ATP by ProQinase assay relative to control
T2 sequence (whole entry): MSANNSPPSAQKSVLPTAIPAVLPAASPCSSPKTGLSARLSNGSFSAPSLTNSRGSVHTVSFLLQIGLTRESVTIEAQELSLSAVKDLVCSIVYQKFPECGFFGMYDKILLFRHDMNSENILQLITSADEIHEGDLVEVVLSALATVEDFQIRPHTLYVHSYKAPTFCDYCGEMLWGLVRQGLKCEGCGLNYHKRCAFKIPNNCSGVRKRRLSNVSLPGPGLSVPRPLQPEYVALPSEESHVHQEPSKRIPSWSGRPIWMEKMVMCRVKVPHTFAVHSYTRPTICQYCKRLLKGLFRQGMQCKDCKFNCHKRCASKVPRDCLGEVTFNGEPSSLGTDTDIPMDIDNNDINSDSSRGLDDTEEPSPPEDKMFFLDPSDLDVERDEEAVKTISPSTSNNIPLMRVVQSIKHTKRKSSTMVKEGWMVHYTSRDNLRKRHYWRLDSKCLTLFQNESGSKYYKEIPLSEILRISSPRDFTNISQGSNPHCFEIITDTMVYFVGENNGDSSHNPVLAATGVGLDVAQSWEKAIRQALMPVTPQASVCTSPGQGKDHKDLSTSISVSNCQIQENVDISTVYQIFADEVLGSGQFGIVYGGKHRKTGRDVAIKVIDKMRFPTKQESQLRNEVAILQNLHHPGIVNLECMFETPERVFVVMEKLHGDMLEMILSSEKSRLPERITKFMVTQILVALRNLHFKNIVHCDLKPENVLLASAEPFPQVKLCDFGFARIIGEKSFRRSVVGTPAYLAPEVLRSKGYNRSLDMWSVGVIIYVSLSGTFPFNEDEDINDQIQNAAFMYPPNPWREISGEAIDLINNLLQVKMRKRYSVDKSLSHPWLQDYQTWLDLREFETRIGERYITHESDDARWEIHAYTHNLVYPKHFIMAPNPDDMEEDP

[12] = Anti-inflammatory activity against human derived high respond PBMC cells assessed as inhibition in stimulated INFgamma cytokine release incubated for 2 hrs in the presence of LPS/SEB/aCD28 by Luminex based sandwich immunoassay; type: functional, cell-based
[13] = molecular target: CYP2C19 (Homo sapiens, UniProt P33261); test: Inhibition of CYP2C19 (unknown origin) at 10 uM relative to control; type: ADME

`O=C1c2ccc(Nc3ccc(F)cc3F)cc2CCc2ccc(OC[C@H](O)CO)cc21` [Skepinone-L] showed an Activity [1] of 98%, an Activity [2] of 72% and an Activity [3] of 96%. The Activity [4] was 97%, the Activity [5] was 100% and the Activity [6] was 94%. It also gave an Activity [7] of 100%, an Activity [8] of 82% and an Activity [9] of 97%. It also gave an Activity [10] of 92%, an Activity [11] of 92% and an IC50 [12] of 60 nM. It also gave an inhibition at 10 µM [13] of 42%.
